Reference: patent US4725683A, “Fluorophenoxyphenoxypropionates and derivatives thereof” (The Dow Chemical Company, priority 1985, dated 1988)
Where two headings read alike, the source gives them in different places.

Legend:
Format in all cases: in vivo
Wheat [1] = experiment: Postemergent activity; settings: Triticum aestivum, post-emergence, 336 h, read-out: % Control
Experimental: (§1) Representative compositions of the present invention were evaluated for the postemergence control of species of plants listed in Table A. In these evaluations, pots of the plant species listed in Table A, grown to a height of about 10 cms, were used. Aqueous spray compositions, containing various amounts of 2-[4-(2-fluoro-4-trifluoromethylphenoxy)-phenoxy]propionic acid methy ester, i.e., 125 ppm, 62.5 ppm, 31.25 ppm, 15.6 ppm, 7.8 ppm and 3.9 ppm, respectively, were applied to separate pots. The spray compositions were made by mixing the active ingredient in acetone to 1/2 the final volume, i.e., twice the final concentration. An equal amount of water was added to the active ingredient/acetone mixture wherein the water contained 0.1 percent by weight of TWEEN® 200 surfactant. The application to the plants was made to the point of run-off and was carried out with conventional spraying equipment. Other pots were sprayed with similar compositions containing no toxicant to serve as controls. Thereafter, the pots were maintained under conditions conducive for plant growth. Two weeks after treatment, the pots were examined for plant growth and evaluated on a scale of 0 to 100 where 0 represents no effect and 100 represents complete kill. The results of the examination of the treated pots are set forth below in Table A.
(§2) Substantially the same procedures as those described in Example A were repeated except that the active ingredients were 2-[4-(4-chloro-2-fluorophenoxy)phenoxy]propionic acid; methyl ester and its R-enantiomer and 2-(4-(4-bromo-2-fluorophenoxy)phenoxy propionic acid; methyl ester and its R enantiomer. The results are listed below in Table B.
(§3) In further operations employing the above general procedures and the indicated test compounds the following results were obtained: […]

Wild Oats = experiment: Postemergent activity; settings: Avena fatua, post-emergence, 336 h
Experimental: as §1, §2, §3

Barley = experiment: Postemergent activity
Experimental: (§4) Representative compositions of the present invention were evaluated for the postemergence control of species of plants listed in Table A. In these evaluations, pots of the plant species listed in Table A, grown to a height of about 10 cms, were used. […] The spray compositions were made by mixing the active ingredient in acetone to 1/2 the final volume, i.e., twice the final concentration. An equal amount of water was added to the active ingredient/acetone mixture wherein the water contained 0.1 percent by weight of TWEEN® 200 surfactant. The application to the plants was made to the point of run-off and was carried out with conventional spraying equipment. […] Thereafter, the pots were maintained under conditions conducive for plant growth.

Blackgrass = experiment: Postemergent activity
Experimental: as §4

Cheatgrass = experiment: Postemergent activity
Experimental: as §4

Green Foxtail [2] = experiment: Postemergent activity
Experimental: as §4

Yellow Foxtail = experiment: Postemergent activity
Experimental: as §4

Fall Panicum = experiment: Selective postemergence, track sprayer
Experimental: as §1
(§5) To further define the selective postemergence herbicidal characteristics of compounds of the present invention, chemicals were applied to additional species of grasses as listed in Table F. Chemicals evaluated were 2-[4-(4-bromo-2-fluorophenoxy)phenoxy]propionic acid methyl ester and its R isomer. Treatment conditions were similar to those described in Example A except that chemicals were delivered through a track sprayer set to deliver the appropriate dosages in 280.6 L/hectare of water containing 0.1% Tween-20 surfactant.

Green Foxtail [3] = experiment: Selective postemergence, track sprayer
Experimental: as §1, §5

Tall Fescue = experiment: Selective postemergence, track sprayer
Experimental: as §1, §5

Wheat [4] = experiment: Selective postemergence, track sprayer
Experimental: as §1, §5

## COC(=O)[C@@H](C)Oc1ccc(Oc2ccc(Br)cc2F)cc1 [4-Bromo-(R-Enantiomer), R enantiomer of 2-[4-(4-bromo-2-fluorophenoxy)phenoxy]propionic acid methyl ester]
Wheat [1]; 1.9 ppm
  plant injury at 1.9 ppm: 0%
Wheat [1]
  plant injury at 3.9 ppm: 0%
  plant injury at 7.8 ppm: 0%
Wheat [1]; 15.6 ppm
  plant injury at 15.6 ppm: 0%
Wheat [1]; 31.25 ppm
  plant injury at 31.25 ppm: 0%
Wheat [1]; 62.5 ppm
  plant injury at 62.5 ppm: 0%
Wheat [1]; 125 ppm
  plant injury at 125 ppm: 70%
Wheat [1]; 250 ppm
  plant injury at 250 ppm: 100%
Wild Oats; 1.9 ppm
  pest or weed control at 1.9 ppm: 60%
Wild Oats
  pest or weed control at 3.9 ppm: 80%
Wild Oats; read-out: % Control
  pest or weed control at 7.8 ppm: 80%
Wild Oats; 15.6 ppm, read-out: % Control
  pest or weed control at 15.6 ppm: 90%
Wild Oats; 31.25 ppm, read-out: % Control
  pest or weed control at 31.25 ppm: 90%
Wild Oats; 62.5 ppm, read-out: % Control
  pest or weed control at 62.5 ppm: 100%
Wild Oats; 125 ppm, read-out: % Control
  pest or weed control at 125 ppm: 100%
Wild Oats; 250 ppm, read-out: % Control
  pest or weed control at 250 ppm: 100%
Barley; 1.9 ppm
  % Control: 0%
Barley; 3.9 ppm
  % Control: 0%
Barley; 7.8 ppm
  % Control: 0%
Barley; 15.6 ppm
  % Control: 0%
Barley; 31.25 ppm
  % Control: 0%
Barley; 62.5 ppm
  % Control: 95%
Barley; 125 ppm
  % Control: 90%
Barley; 250 ppm
  % Control: 100%
Blackgrass; 0.1 ppm
  % Control: 0%
Blackgrass; 0.2 ppm
  % Control: 0%
Blackgrass; 0.4 ppm
  % Control: 50%
Blackgrass; 0.8 ppm
  % Control: 60%
Blackgrass; 1.5 ppm
  % Control: 90%
Blackgrass; 3.1 ppm
  % Control: 90%
Blackgrass; 6.3 ppm
  % Control: 100%
Blackgrass; 12.5 ppm
  % Control: 100%
Cheatgrass; 0.1 ppm
  % Control: 0%
Cheatgrass; 0.2 ppm
  % Control: 0%
Cheatgrass; 0.4 ppm
  % Control: 0%
Cheatgrass; 0.8 ppm
  % Control: 0%
Cheatgrass; 1.5 ppm
  % Control: 0%
Cheatgrass; 3.1 ppm
  % Control: 0%
Cheatgrass; 6.3 ppm
  % Control: 0%
Cheatgrass; 12.5 ppm
  % Control: 0%
Green Foxtail [2]; 0.1 ppm
  % Control: 0%
Green Foxtail [2]; 0.2 ppm
  % Control: 50%
Green Foxtail [2]; 0.4 ppm
  % Control: 100%
Green Foxtail [2]; 0.8 ppm
  % Control: 100%
Green Foxtail [2]; 1.5 ppm
  % Control: 100%
Green Foxtail [2]; 3.1 ppm
  % Control: 100%
Green Foxtail [2]; 6.3 ppm
  % Control: 100%
Green Foxtail [2]; 12.5 ppm
  % Control: 100%
Yellow Foxtail; 0.1 ppm
  % Control: 0%
Yellow Foxtail; 0.2 ppm
  % Control: 0%
Yellow Foxtail; 0.4 ppm
  % Control: 0%
Yellow Foxtail; 0.8 ppm
  % Control: 20%
Yellow Foxtail; 1.5 ppm
  % Control: 60%
Yellow Foxtail; 3.1 ppm
  % Control: 100%
Yellow Foxtail; 6.3 ppm
  % Control: 100%
Yellow Foxtail; 12.5 ppm
  % Control: 100%
Fall Panicum; 0.00055 kgs/hectare
  Percent Control: 20%
Fall Panicum; 0.0011 kgs/hectare
  Percent Control: 30%
Fall Panicum; 0.0023 kgs/hectare
  Percent Control: 50%
Fall Panicum; 0.0045 kgs/hectare
  Percent Control: 80%
Fall Panicum; 0.009 kgs/hectare
  Percent Control: 80%
Fall Panicum; 0.018 kgs/hectare
  Percent Control: 100%
Fall Panicum; 0.035 kgs/hectare
  Percent Control: 100%
Fall Panicum; 0.07 kgs/hectare
  Percent Control: 100%
Fall Panicum; 0.14 kgs/hectare
  Percent Control: 100%
Fall Panicum; 0.28 kgs/hectare
  Percent Control: 100%
Green Foxtail [3]; 0.00055 kgs/hectare
  Percent Control: 30%
Green Foxtail [3]; 0.0011 kgs/hectare
  Percent Control: 70%
Green Foxtail [3]; 0.0023 kgs/hectare
  Percent Control: 90%
Green Foxtail [3]; 0.0045 kgs/hectare
  Percent Control: 95%
Green Foxtail [3]; 0.009 kgs/hectare
  Percent Control: 95%
Green Foxtail [3]; 0.018 kgs/hectare
  Percent Control: 100%
Green Foxtail [3]; 0.035 kgs/hectare
  Percent Control: 100%
Green Foxtail [3]; 0.07 kgs/hectare
  Percent Control: 100%
Green Foxtail [3]; 0.14 kgs/hectare
  Percent Control: 100%
Green Foxtail [3]; 0.28 kgs/hectare
  Percent Control: 100%
Tall Fescue; 0.00055 kgs/hectare
  Percent Control: 0%
Tall Fescue; 0.0011 kgs/hectare
  Percent Control: 0%
Tall Fescue; 0.0023 kgs/hectare
  Percent Control: 0%
Tall Fescue; 0.0045 kgs/hectare
  Percent Control: 20%
Tall Fescue; 0.009 kgs/hectare
  Percent Control: 50%
Tall Fescue; 0.018 kgs/hectare
  Percent Control: 70%
Tall Fescue; 0.035 kgs/hectare
  Percent Control: 80%
Tall Fescue; 0.07 kgs/hectare
  Percent Control: 90%
Tall Fescue; 0.14 kgs/hectare
  Percent Control: 90%
Tall Fescue; 0.28 kgs/hectare
  Percent Control: 90%
Wheat [4]; 0.00055 kgs/hectare
  Percent Control: 0%
Wheat [4]; 0.0011 kgs/hectare
  Percent Control: 0%
Wheat [4]; 0.0023 kgs/hectare
  Percent Control: 0%
Wheat [4]; 0.0045 kgs/hectare
  Percent Control: 0%
Wheat [4]; 0.009 kgs/hectare
  Percent Control: 0%
Wheat [4]; 0.018 kgs/hectare
  Percent Control: 0%
Wheat [4]; 0.035 kgs/hectare
  Percent Control: 0%
Wheat [4]; 0.07 kgs/hectare
  Percent Control: 0%
Wheat [4]; 0.14 kgs/hectare
  Percent Control: 0%
Wheat [4]; 0.28 kgs/hectare
  Percent Control: 0%

## COC(=O)C(C)Oc1ccc(Oc2ccc(Cl)cc2F)cc1 (racemic) [Example 4-Chloro-, 2-[4-(4-chloro-2-fluorophenoxy)phenoxy]propionic acid methyl ester]
Wheat [1]
  plant injury at 15.6 ppm: 0%
  plant injury at 31.25 ppm: 0%
  plant injury at 62.5 ppm: 0%
  plant injury at 125 ppm: 0%
  plant injury at 250 ppm: 0%
  plant injury at 500 ppm: 40%
Wild Oats; read-out: % Control
  pest or weed control at 15.6 ppm: 40%
  pest or weed control at 31.25 ppm: 100%
  pest or weed control at 62.5 ppm: 95%
  pest or weed control at 125 ppm: 90%
  pest or weed control at 250 ppm: 100%
  pest or weed control at 500 ppm: 100%
Barley; 15.6 ppm
  % Control: 0%
Barley; 31.25 ppm
  % Control: 0%
Barley; 62.5 ppm
  % Control: 0%
Barley; 125 ppm
  % Control: 0%
Barley; 250 ppm
  % Control: 0%
Barley; 500 ppm
  % Control: 50%
Blackgrass; 1.56 ppm
  % Control: 50%
Blackgrass; 3.1 ppm
  % Control: 50%
Blackgrass; 6.3 ppm
  % Control: 100%
Blackgrass; 12.5 ppm
  % Control: 100%
Blackgrass; 25 ppm
  % Control: 99%
Blackgrass; 50 ppm
  % Control: 100%
Blackgrass; 100 ppm
  % Control: 100%
Cheatgrass; 1.56 ppm
  % Control: 0%
Cheatgrass; 3.1 ppm
  % Control: 0%
Cheatgrass; 6.3 ppm
  % Control: 0%
Cheatgrass; 12.5 ppm
  % Control: 0%
Cheatgrass; 25 ppm
  % Control: 0%
Cheatgrass; 50 ppm
  % Control: 10%
Cheatgrass; 100 ppm
  % Control: 40%
Green Foxtail [2]; 1.56 ppm
  % Control: 95%
Green Foxtail [2]; 3.1 ppm
  % Control: 100%
Green Foxtail [2]; 6.3 ppm
  % Control: 100%
Green Foxtail [2]; 12.5 ppm
  % Control: 100%
Green Foxtail [2]; 25 ppm
  % Control: 100%
Green Foxtail [2]; 50 ppm
  % Control: 100%
Green Foxtail [2]; 100 ppm
  % Control: 100%
Yellow Foxtail; 1.56 ppm
  % Control: 50%
Yellow Foxtail; 3.1 ppm
  % Control: 80%
Yellow Foxtail; 6.3 ppm
  % Control: 100%
Yellow Foxtail; 12.5 ppm
  % Control: 100%
Yellow Foxtail; 25 ppm
  % Control: 100%
Yellow Foxtail; 50 ppm
  % Control: 100%
Yellow Foxtail; 100 ppm
  % Control: 100%

## COC(=O)C(C)Oc1ccc(Oc2ccc(C(F)(F)F)cc2F)cc1 (stereo not shown) [2-[4-(2-fluoro-4-trifluoromethylphenoxy)phenoxy]propionic acid methyl ester]
Wheat [1]
  plant injury at 3.9 ppm: 0%
  plant injury at 7.8 ppm: 60%
Wheat [1]; 15.6 ppm
  plant injury at 15.6 ppm: 90%
Wheat [1]; 31.25 ppm
  plant injury at 31.25 ppm: 100%
Wheat [1]; 62.5 ppm
  plant injury at 62.5 ppm: 100%
Wheat [1]; 125 ppm
  plant injury at 125 ppm: 100%
Wild Oats
  pest or weed control at 3.9 ppm: 0%
Wild Oats; read-out: % Control
  pest or weed control at 7.8 ppm: 0%
Wild Oats; 15.6 ppm, read-out: % Control
  pest or weed control at 15.6 ppm: 60%
Wild Oats; 31.25 ppm, read-out: % Control
  pest or weed control at 31.25 ppm: 100%
Wild Oats; 62.5 ppm, read-out: % Control
  pest or weed control at 62.5 ppm: 100%
Wild Oats; 125 ppm, read-out: % Control
  pest or weed control at 125 ppm: 100%
Yellow Foxtail; 3.9 ppm
  % Control: 35%
Yellow Foxtail; 7.8 ppm
  % Control: 100%
Yellow Foxtail; 15.6 ppm
  % Control: 100%
Yellow Foxtail; 31.25 ppm
  % Control: 100%
Yellow Foxtail; 62.5 ppm
  % Control: 100%
Yellow Foxtail; 125 ppm
  % Control: 100%
